Measurements published in US10039780B2 (Chiesi Farmaceutici S.p.A., priority 2015, dated 2018).

Columns and labels:
Assay type in all cases: physicochemical
[1] = Hygroscopicity by dynamic vapor adsorption analysis
[2] = Accelerated pH stability of cangrelor in buffer solutions, reverse phase HPLC; details: 1 mg/mL, 7 days at 40° C. protected from light
Description: The extent of degradation was determined using a reverse phase HPLC method.

[3] = Solution stability of cangrelor in purified water, reverse phase HPLC; details: 1 mg/mL in purified water
[4] = Photostability of solid cangrelor in quartz cuvettes, reverse phase HPLC
Description: Namely, solid cangrelor was placed in two quartz cuvettes. Both cuvettes were placed in a chamber and exposed to a combination of […] (near UV) and […] (visible) light for a total of 7.8×10^6 LUX hours and 221 watt hours/m^2, but one cuvette was wrapped in aluminum foil. After 17 days, the levels of impurities in the sample were determined by reverse phase HPLC.

[5] = Long term stability at 25° C. and 60% relative humidity (HPLC, ion chromatography, Karl-Fischer); details: for Impurity A concentration / Impurity B concentration / Total impurities concentration / Moisture concentration / Impurity E concentration / Impurity C concentration: 25° C./60% relative humidity; for Moisture concentration: Karl-Fischer; for Impurity E concentration: ion chromatography; for storage stability, conclusion in words: storage at 25° C./60% relative humidity
Description: Their pH was adjusted to 8.5 prior to lyophilization and they were stored in glass vials stoppered with a stopper specifically selected for its ability to retain as little moisture as possible after autoclaving and after drying for 8 h at 105° C. […] Cangrelor lots API A-B are cangrelor tetrasodium. They were stored in double polyethylene bags in […]. […] In addition their moisture content was determined by Karl-Fischer titration.

[6] = after 8 days, 4° C. and ambient humidity
[7] = after 8 days, 25° C. and 60% relative humidity
[8] = after 8 days, 40° C. and ambient humidity

CSCCNc1nc(SCCC(F)(F)F)nc2c1ncn2[C@@H]1O[C@H](COP(=O)(O)OP(=O)(O)C(Cl)(Cl)P(=O)(O)O)[C@@H](O)[C@H]1O [cangrelor tetrasodium]
hygroscopicity [1]: hygroscopic

CSCCNc1nc(SCCC(F)(F)F)nc2c1ncn2[C@@H]1O[C@H](COP(=O)(O)OP(=O)(O)C(Cl)(Cl)P(=O)(O)O)[C@@H](O)[C@H]1O [Cangrelor, [dichloro-[[[(2R,3S,4R,5R)-3,4-dihydroxy-5-[6-(2-methylsulfanylethylamino)-2-(3,3,3-trifluoropropylsulfanyl)purin-9-yl]oxolan-2-yl]methoxy-hydroxyphosphoryl]oxy-hydroxyphosphoryl]methyl]phosphonic acid]
Impurity A ([2]; pH 1.0, 0.1M HCl): 28.51 % w/w | Impurity D ([2]; pH 1.0, 0.1M HCl): 68.12 % w/w | Total Impurities ([2]; pH 1.0, 0.1M HCl): 97.28 % w/w | Impurity A ([2]; pH 3.0, Phosphate): 28.69 % w/w | Impurity D ([2]; pH 3.0, Phosphate): 0.81 % w/w | Total Impurities ([2]; pH 3.0, Phosphate): 31.48 % w/w | Impurity A ([2]; pH 5.0, Phosphate): 20.70 % w/w | Total Impurities ([2]; pH 5.0, Phosphate): 22.16 % w/w | Impurity A ([2]; pH 7.0, Phosphate): 14.31 % w/w | Total Impurities ([2]; pH 7.0, Phosphate): 15.71 % w/w | Impurity A ([2]; pH 9.0, Phosphate): 3.25 % w/w | Total Impurities ([2]; pH 9.0, Phosphate): 4.90 % w/w | Impurity A ([2]; pH 11.0, Phosphate): 2.61 % w/w | Total Impurities ([2]; pH 11.0, Phosphate): 4.28 % w/w | Impurity A ([2]; pH 12.0, 0.1M NaOH): 2.42 % w/w | Total Impurities ([2]; pH 12.0, 0.1M NaOH): 4.39 % w/w | Cangrelor measured level ([3]; Initial): 98.23 % w/w | Impurity A measured level ([3]; Initial): 0.16 % w/w | Impurity C measured level ([3]; Initial): 0.28 % w/w | Total Impurities measured level ([3]; Initial): 1.76 % w/w | Cangrelor measured level [3, 6]: 98.45 % w/w | Impurity A measured level [3, 6]: 0.22 % w/w | Impurity C measured level [3, 6]: 0.26 % w/w | Total Impurities measured level [3, 6]: 1.54 % w/w | Cangrelor measured level [3, 7]: 96.94 % w/w | Impurity A measured level [3, 7]: 1.58 % w/w | Impurity C measured level [3, 7]: 0.27 % w/w | Total Impurities measured level [3, 7]: 3.06 % w/w | Cangrelor measured level [3, 8]: 90.46 % w/w | Impurity A measured level [3, 8]: 7.50 % w/w | Impurity C measured level [3, 8]: 0.37 % w/w | Total Impurities measured level [3, 8]: 9.56 % w/w | total level of impurities ([4]; solid cangrelor, initially): 0.8 % (w/w) | total level of impurities ([4]; solid, exposed sample, near UV and visible light, 7.8×10^6 LUX hours and 221 watt hours/m^2, after 17 days): 4.3 % (w/w) | total level of impurities ([4]; solid, shielded sample (cuvette wrapped in aluminum foil), after 17 days): 1.2 % (w/w)

CSCCNc1nc(SCCC(F)(F)F)nc2c1ncn2[C@@H]1O[C@H](COP(=O)([O-])OP(=O)([O-])C(Cl)(Cl)P(=O)([O-])[O-])[C@@H](O)[C@H]1O.[Na+].[Na+].[Na+].[Na+] [API A]
Impurity A concentration ([5]; 1 month): 0.28 % w/w | Impurity B concentration ([5]; 1 month): 0.22 % w/w | Total impurities concentration ([5]; 1 month): 1.10 % w/w | Moisture concentration ([5]; 1 month): 7.7 % w/w | Impurity E concentration ([5]; 1 month): 0.08 % w/w | Impurity A concentration ([5]; 3 months): 0.47 % w/w | Impurity B concentration ([5]; 3 months): 0.33 % w/w | Total impurities concentration ([5]; 3 months): 1.40 % w/w | Moisture concentration ([5]; 3 months): 11.3 % w/w | Impurity E concentration ([5]; 3 months): 0.11 % w/w | Impurity A concentration ([5]; Initial): 0.15 % w/w | Impurity B concentration ([5]; Initial): 0.11 % w/w | Total impurities concentration ([5]; Initial): 0.70 % w/w | Moisture concentration ([5]; Initial): 4.3 % w/w | Impurity E concentration ([5]; Initial): 0.06 % w/w | storage stability, conclusion in words [5]: display significant degradation over time

CSCCNc1nc(SCCC(F)(F)F)nc2c1ncn2[C@@H]1O[C@H](COP(=O)([O-])OP(=O)([O-])C(Cl)(Cl)P(=O)([O-])[O-])[C@@H](O)[C@H]1O.[Na+].[Na+].[Na+].[Na+] [API B]
Impurity A concentration ([5]; 1 month): 0.36 % w/w | Impurity B concentration ([5]; 1 month): 0.19 % w/w | Impurity C concentration ([5]; 1 month): 0.06 % w/w | Total impurities concentration ([5]; 1 month): 1.10 % w/w | Moisture concentration ([5]; 1 month): 6.9 % w/w | Impurity A concentration ([5]; 3 months): 0.51 % w/w | Impurity B concentration ([5]; 3 months): 0.32 % w/w | Impurity C concentration ([5]; 3 months): 0.08 % w/w | Total impurities concentration ([5]; 3 months): 1.50 % w/w | Moisture concentration ([5]; 3 months): 9.9 % w/w | Impurity A concentration ([5]; 6 months): 0.70 % w/w | Impurity B concentration ([5]; 6 months): 0.48 % w/w | Impurity C concentration ([5]; 6 months): 0.19 % w/w | Total impurities concentration ([5]; 6 months): 1.90 % w/w | Moisture concentration ([5]; 6 months): 11.6 % w/w | Impurity A concentration ([5]; Initial): 0.31 % w/w | Impurity B concentration ([5]; Initial): 0.11 % w/w | Impurity C concentration ([5]; Initial): <0.05 % w/w | Total impurities concentration ([5]; Initial): 0.80 % w/w | Moisture concentration ([5]; Initial): 7.0 % w/w | storage stability, conclusion in words [5]: display significant degradation over time
